Legend:
TLR7 = target: T1, TLR7 (Homo sapiens, UniProt Q9NYK1); test: In vitro human TLR7 binding reporter assay (HEK-Blue, NF-kB/AP1-inducible SEAP); type: cell-based; conditions: activity range symbols
T1 construct: host or cells: HEK-Blue cells (human HEK) co-expressing TLR7 and an NF-kB/AP1-inducible SEAP reporter
T1 sequence (Q9NYK1 27-1049): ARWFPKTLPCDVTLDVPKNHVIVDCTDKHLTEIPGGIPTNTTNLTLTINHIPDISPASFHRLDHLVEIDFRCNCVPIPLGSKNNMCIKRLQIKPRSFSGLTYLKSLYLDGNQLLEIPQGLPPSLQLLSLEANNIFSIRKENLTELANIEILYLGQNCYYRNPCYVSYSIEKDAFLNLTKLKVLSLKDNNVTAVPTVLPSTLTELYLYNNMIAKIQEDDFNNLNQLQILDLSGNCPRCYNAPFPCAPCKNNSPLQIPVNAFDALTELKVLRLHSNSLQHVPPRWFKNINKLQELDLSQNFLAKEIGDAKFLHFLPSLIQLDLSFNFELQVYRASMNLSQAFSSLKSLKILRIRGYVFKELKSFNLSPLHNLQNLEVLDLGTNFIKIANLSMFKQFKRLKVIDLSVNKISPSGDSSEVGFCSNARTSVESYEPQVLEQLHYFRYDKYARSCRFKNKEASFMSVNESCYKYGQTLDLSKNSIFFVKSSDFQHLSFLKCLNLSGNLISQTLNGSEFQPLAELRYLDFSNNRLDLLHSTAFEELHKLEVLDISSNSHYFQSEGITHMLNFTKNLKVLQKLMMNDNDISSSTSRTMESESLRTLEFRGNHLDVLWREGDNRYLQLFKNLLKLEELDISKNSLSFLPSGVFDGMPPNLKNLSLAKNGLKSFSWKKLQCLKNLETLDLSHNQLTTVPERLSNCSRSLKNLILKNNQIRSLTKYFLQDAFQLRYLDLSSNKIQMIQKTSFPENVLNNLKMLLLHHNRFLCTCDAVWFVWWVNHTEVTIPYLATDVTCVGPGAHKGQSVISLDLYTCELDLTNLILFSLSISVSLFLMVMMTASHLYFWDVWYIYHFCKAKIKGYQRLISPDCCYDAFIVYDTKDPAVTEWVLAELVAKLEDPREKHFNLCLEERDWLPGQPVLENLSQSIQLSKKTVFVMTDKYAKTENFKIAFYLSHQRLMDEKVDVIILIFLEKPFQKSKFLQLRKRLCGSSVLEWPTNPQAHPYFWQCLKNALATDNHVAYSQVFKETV
Procedure, shortened: (§1)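 Reporter cells are plated at 15,000 per well and rested 24 h. Next day, test compounds or DMSO are dispensed, followed by 18 h incubation at 37 °C, 5% CO2.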

TLR8 = target: T2, TLR8 (Homo sapiens, UniProt Q9NR97); test: In vitro human TLR8 binding reporter assay (HEK-Blue, NF-kB/AP1-inducible SEAP); type: cell-based
T2 construct: host or cells: HEK-Blue cells (human HEK) co-expressing TLR8 and an NF-kB/AP1-inducible SEAP reporter
T2 sequence (Q9NR97 27-1041): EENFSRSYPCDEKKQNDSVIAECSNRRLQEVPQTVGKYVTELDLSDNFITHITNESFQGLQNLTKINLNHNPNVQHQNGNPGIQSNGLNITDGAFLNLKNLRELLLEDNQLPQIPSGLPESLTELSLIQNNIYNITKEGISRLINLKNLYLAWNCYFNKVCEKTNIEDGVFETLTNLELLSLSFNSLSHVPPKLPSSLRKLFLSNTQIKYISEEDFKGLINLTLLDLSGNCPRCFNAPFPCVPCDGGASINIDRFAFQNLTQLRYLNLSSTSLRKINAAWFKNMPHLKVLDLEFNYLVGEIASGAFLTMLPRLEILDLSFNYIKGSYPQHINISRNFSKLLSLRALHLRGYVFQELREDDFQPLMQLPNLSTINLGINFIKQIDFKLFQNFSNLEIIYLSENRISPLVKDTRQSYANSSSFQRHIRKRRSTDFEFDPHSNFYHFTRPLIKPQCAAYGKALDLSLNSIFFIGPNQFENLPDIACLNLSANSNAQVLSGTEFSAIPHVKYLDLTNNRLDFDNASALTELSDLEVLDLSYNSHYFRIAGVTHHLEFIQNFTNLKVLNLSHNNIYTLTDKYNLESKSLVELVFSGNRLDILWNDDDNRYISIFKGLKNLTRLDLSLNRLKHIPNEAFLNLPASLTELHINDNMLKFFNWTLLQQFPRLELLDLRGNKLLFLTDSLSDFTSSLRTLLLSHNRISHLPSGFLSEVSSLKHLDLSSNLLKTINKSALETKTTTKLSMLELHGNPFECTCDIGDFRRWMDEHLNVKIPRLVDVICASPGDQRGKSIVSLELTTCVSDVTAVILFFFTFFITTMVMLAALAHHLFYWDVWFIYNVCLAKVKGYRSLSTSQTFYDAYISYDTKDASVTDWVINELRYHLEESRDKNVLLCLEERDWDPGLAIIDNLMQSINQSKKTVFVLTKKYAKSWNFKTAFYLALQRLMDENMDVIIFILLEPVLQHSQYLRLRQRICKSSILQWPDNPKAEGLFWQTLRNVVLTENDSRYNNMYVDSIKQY
Procedure, shortened: as §1

SMILES | EC50 (TLR7) [µM] | EC50 (TLR8; activity range symbols) [µM] | EC50 (TLR8; numeric bounds) [µM]
CCN(Cc1nc2c(N)nc3cc(-c4cc[nH]n4)ccc3c2[nH]1)C(=O)c1cnccn1 [Compound 442, N-{[4-amino-7-(1H-pyrazol-3-yl)-1H-imidazo[4,5-c]quinolin-2-yl]methyl}-N-ethylpyrazine-2-carboxamide] | > 100 | > 100 | 
Nc1nc2cc(Br)ccc2c2[nH]c(CN3CC(c4ccccc4)CC3=O)nc12 (stereo not drawn) [Compound 316, 1-[(4-amino-7-bromo-1H-imidazo[4,5-c]quinolin-2-yl)methyl]-4-phenylpyrrolidin-2-one] | > 100 | > 100 | 
Nc1nc2cc(-n3cccn3)ccc2c2[nH]c(CN3CCCCC3=O)nc12 [Compound 423] | > 100 | > 100 | 
Nc1nc2ccccc2c2[nH]c(CN3CCCCC3=O)nc12 [Compound 346] | > 100 | > 100 | 
CCN(Cc1nc2c(N)nc3cc(-c4cc[nH]n4)ccc3c2[nH]1)C(=O)c1ccccn1 [Compound 439, N-{[4-amino-7-(1H-pyrazol-3-yl)-1H-imidazo[4,5-c]quinolin-2-yl]methyl}-N-ethylpyridine-2-carboxamide] | > 100 | > 100 | 
COC(=O)CCCn1c(CN2CCCC2=O)nc2c(N)nc3ccccc3c21 [Compound 335] | > 100 | > 100 | 
COC(=O)CCCn1c(CN2CCCCC2=O)nc2c(N)nc3ccccc3c21 [Compound 347] | > 100 | > 100 | 
CCN(Cc1nc2c(N)nc3cc(-c4cc[nH]n4)ccc3c2[nH]1)C(=O)Cc1cccc(C)c1 [Compound 437, N-{[4-amino-7-(1H-pyrazol-3-yl)-1H-imidazo[4,5-c]quinolin-2-yl]methyl}-N-ethyl-2-(3-methylphenyl)acetamide] | > 100 | > 100 | 
CCN(Cc1nc2c(N)nc3cc(-c4cc[nH]n4)ccc3c2[nH]1)C(=O)c1nccs1 [Compound 114] | > 100 | > 100 | 
COc1ccc(Cn2c(CN3C(=O)OCC3c3ccccc3)nc3c(N)nc4cc(-c5cc[nH]n5)ccc4c32)cc1 (stereo not drawn) [Compound 409] | > 100 | > 100 | 
CCN(C)Cc1nc2c(N)nc3cc(-c4cc[nH]n4)ccc3c2[nH]1 [Compound 349] | > 100 | > 100 | 
CN(C)Cc1nc2c(N)nc3cc(-c4cc[nH]n4)ccc3c2[nH]1 [Compound 348] | > 100 | > 100 | 
CCN(Cc1nc2c(N)nc3cc(-c4cc[nH]n4)ccc3c2[nH]1)C(=O)CN(C)C [Compound 383] | > 100 | > 100 | 
CCN(Cc1nc2c(N)nc3cc(-c4cc[nH]n4)ccc3c2[nH]1)C(=O)c1cn(C)c2ccccc12 [Compound 451, N-{[4-amino-7-(1H-pyrazol-3-yl)-1H-imidazo[4,5-c]quinolin-2-yl]methyl}-N-ethyl-1-methyl-1H-indole-3-carboxamide] | > 100 | 20 to 100 | 
CCN(Cc1nc2c(N)nc3cc(-c4cncc(F)c4)ccc3c2[nH]1)C(C)=O [Compound 427] | > 100 | > 100 | 
N#Cc1cncc(-c2ccc3c(c2)nc(N)c2nc(CN4CCCC4=O)[nH]c23)c1 [Compound 326, 5-[4-amino-2-[(2-oxopyrrolidin-l-yl)methyl]-1H-imidazo[4,5-c]quinolin-7-yl]pyridine-3-carbonitrile] | > 100 | > 100 | 
CCN(Cc1nc2c(N)nc3cc(-c4cc[nH]n4)ccc3c2[nH]1)C(=O)CCC(C)C [Compound 445, N-{[4-amino-7-(1H-pyrazol-3-yl)-1H-imidazo[4,5-c]quinolin-2-yl]methyl}-N-ethyl-4-methylpentanamide] | > 100 |  | > 62

SMILES | EC50 (TLR7) [µM] | EC50 (TLR8; activity range symbols) [µM] | EC50 (TLR8; numeric bounds) [µM]
Nc1nc2cc(-c3cncc(Cl)c3)ccc2c2[nH]c(CN3CCCC3=O)nc12 [Compound 328, 1-[[4-amino-7-(5-chloropyridin-3-yl)-1H-imidazo[4,5-c]quinolin-2-yl]methyl]pyrrolidin-2-one] | > 100 | > 100 | 
CCN(Cc1nc2c(N)nc3cc(-c4cc[nH]n4)ccc3c2[nH]1)C(=O)C1COC1 [Compound 417] | > 100 | > 100 | 
Nc1nc2cc(-n3cccn3)ccc2c2[nH]c(CN3C[C@H](c4ccccc4)CC3=O)nc12 [Compound 358] | > 100 | > 100 | 
CCNCc1nc2c(N)nc3cc(-c4ccsc4)ccc3c2[nH]1 [Compound 400] | > 100 | > 100 | 
Nc1nc2cc(-c3cc[nH]n3)ccc2c2[nH]c(CN3C[C@@H](c4ccccc4)CC3=O)nc12 [Compound 407] | > 100 | > 100 | 
CN(Cc1nc2c(N)nc3cc(-c4cc[nH]n4)ccc3c2[nH]1)C(=O)CN [Compound 372] | > 100 | > 100 | 
Nc1nc2cc(-c3cc[nH]n3)ccc2c2[nH]c(CN3C(=O)OCC3c3ccccc3)nc12 (stereo not drawn) [Compound 363] | > 100 | > 100 | 
CN(C)C(=O)N(C)Cc1nc2c(N)nc3cc(-c4cc[nH]n4)ccc3c2[nH]1 [Compound 375] | > 100 | > 100 | 
CC(c1nc2c(N)nc3cc(-n4cccn4)ccc3c2[nH]1)N1CCCC1=O (stereo not drawn) [Compound 117] | 20 to 100 | > 100 | 
CCN(Cc1nc2c(N)nc3cc(Br)ccc3c2n1CC(C)C)C(C)=O [Compound 430] | > 100 |  | > 10
Nc1nc2cc(-c3cc[nH]n3)ccc2c2[nH]c(CN3CCOC3=O)nc12 [Compound 365] | > 100 | > 100 | 
COc1ccc(Cn2c(CN3C(=O)OCC3COCc3ccccc3)nc3c(N)nc4cc(-c5cc[nH]n5)ccc4c32)cc1 (stereo not drawn) [Compound 404] | > 100 | > 100 | 
CCN(Cc1nc2c(N)nc3cc(-c4cc[nH]n4)ccc3c2[nH]1)C(=O)c1cccnc1 [Compound 438, N-{[4-amino-7-(1H-pyrazol-3-yl)-1H-imidazo[4,5-c]quinolin-2-yl]methyl}-N-ethylpyridine-3-carboxamide] | > 100 | > 100 | 
CCN(Cc1nc2c(N)nc3cc(-c4cc[nH]n4)ccc3c2[nH]1)C(=O)c1ccc(OC)cc1 [Compound 441, N-{[4-amino-7-(1H-pyrazol-3-yl)-1H-imidazo[4,5-c]quinolin-2-yl]methyl}-N-ethyl-4-methoxybenzamide] | > 100 |  | > 62
CCN(Cc1nc2c(N)nc3cc(-c4cc[nH]n4)ccc3c2[nH]1)C(=O)CC(C)(C)O [Compound 440, N-{[4-amino-7-(1H-pyrazol-3-yl)-1H-imidazo[4,5-c]quinolin-2-yl]methyl}-N-ethyl-3-hydroxy-3-methylbutanamide] | > 100 | > 100 | 
CCNCc1nc2c(N)nc3cc(-n4cccn4)ccc3c2[nH]1 [Compound 398] | > 100 | > 100 | 
